From PMC8163216, “Macrocycle synthesis strategy based on step-wise “adding and reacting” three components enables screening of large combinatorial libraries” (Chemical Science, 2020) come the findings set out here.

The target in one data set is T1, human thrombin (Homo sapiens, UniProt P00734).
T1 construct: consists of two polypeptide chains of 259 (H-chain) and 37 amino acid residues; purchased Molecular Innovations
As to the kind of experiment: Determination of the inhibitory constants of purified macrocycles (thrombin, fluorogenic substrate Z-Gly-Gly-Arg-AMC). In kind it is biochemical. Particulars: for Ki: purified macrocycle, 2 nM thrombin, 50 μM Z-Gly-Gly-Arg-AMC, Ki from IC50 by Cheng-Prusoff. Here is the method: Determination of the inhibitory constants of macrocycles
The IC50s of macrocycles were determined by measuring the residual activity of thrombin at different dilutions of macrocycle using a fluorogenic substrate. The reactions were performed in a volume of 150 µl in 96-well plates. A volume of 50 µl of 2-fold dilutions of macrocycle in assay buffer (10 mM Tris-Cl [pH 7.4], 150 mM NaCl, 10 mM MgCl2, 1 mM CaCl2, 0.1% w/v BSA, 0.01% v/v Triton-X100) were pipetted to the wells. A volume of 50 µl of thrombin (6 nM) in assay buffer was added to each well to reach a final concentration of 2 nM and was incubated for 15 min. A volume of 50 µl of the fluorogenic substrate Z-Gly-Gly-Arg-AMC (150 µM) in assay buffer containing 3% DMSO was added to reach a final substrate concentration of 50 µM and 1% DMSO. Fluorescence intensity was measured for 30 min using an Infinite M200Pro plate reader (Tecan; excitation at 368 nm, emission at 467 nm) with a read every minute.
Sigmoidal curves were fitted to the data using Prism 5 (GraphPad software) and the following dose- […]
wherein x is macrocycle concentration, y is % protease activity, and p is Hill slope. IC50 values were derived […]
The inhibitory constants (Ki) were calculated using the following equation of Cheng and Prusoff: […]
wherein IC50 is the functional strength of the inhibitor, [S]0 is the total substrate concentration, and Km is the Michaelis-Menten constant. The Km for thrombin and the substrate Z-Gly-Gly-Arg-AMC was determined to […]

Data set [1] is described as follows: One-pot thiol-to-amine (S-to-N) bis-alkylation/conjugate addition/SNAr: Cys thiol and N-terminal secondary benzylamine (peptoid-type) bridged by bis-electrophile linkers 1-6 (8 equiv, 800 uM) after TCEP removal of the S-SO3H group (TCEP 400 uM, excess benzylamine 1.6 mM present). Particulars: the molecule shown is the open-chain precursor, 60 mM aq NH4HCO3 pH 8 with about 5% DMSO, 0.1 mM, 37.0 °C, 3 steps, scale: %.

Data set [2] deals with human plasma. As to the kind of experiment: Prothrombin time (PT), extrinsic coagulation pathway, in human plasma. In kind it is biochemical. Particulars: EC2× = concentration for 2-fold increase in coagulation time. Here is the method: (§1) Determination of target specificity
(§2) The specificity was profiled by testing the inhibition of a panel of trypsin-like serine proteases using fluorogenic or chromogenic substrates. Dilutions of macrocycle were prepared ranging from 40 µM to 40 nM for all proteases except for thrombin (1 µM to 1 nM). The following final concentrations of human proteases were used: 2 nM thrombin (Molecular Innovations), 0.6 nM activated protein C (APC, Molecular Innovations), 1.5 nM uPA (Molecular Innovations), 0.25 nM plasma kallikrein (Innovative Research), 1 nM factor XIa (Innovative Research), 7.5 nM tPA (Molecular Innovations), 0.1 nM trypsin (Molecular Innovations), 3 nM factor XIIa (Molecular Innovations), and 2.5 nM plasmin (Molecular Innovations). […]
(§3) A volume of 50 µl of the substrate in assay buffer containing 3% DMSO was added. Fluorescence intensity was measured for 30 min using an Infinite M200Pro plate reader (Tecan; excitation at 368 nm, emission at 467 nm) with a read every minute. For APC protease, absorption was measured at 405 nm with the same plate reader for a period of 30 min with a read every minute. […] The inhibitory constants were calculated as described above. […]
(§4) Coagulation times were determined in human plasma using a STAGO STart4 coagulation analyzer (Diagnostica). […]
(§5) ball stopped moving was recorded as coagulation time. […]

The test system of data set [3] is human plasma. Description: Activated partial thromboplastin time (aPTT), intrinsic coagulation pathway, in human plasma. In kind it is biochemical. Particulars: EC2× = concentration for 2-fold increase in coagulation time. Here is the method:
as §1, §2, §3, §4, §5

The subject of data set [4] is panel of nine human proteases. Description: Determination of target specificity against a panel of trypsin-like serine proteases. Particulars: panel of nine human proteases structurally and functionally most similar to thrombin. In kind it is biochemical. On the procedure: as §1, §2, §3, §4, §5

With `N=C(N)NCCC[C@@H]1NC(=O)C[C@H]2CCCN2C(=O)CN(Cc2ccccc2CO)Cc2ccccc2CSC[C@@H](C(N)=O)NC1=O` [macrocycle 60], the affinity on human thrombin corresponds to a Ki of 95 ± 17 nM.

For `C=CS(=O)(=O)CS(=O)(=O)CCSC[C@H](NC(=O)CNC(=O)CNCc1ccccc1)C(=O)NCC(=O)N[C@@H](Cc1c[nH]c2ccccc12)C(N)=O` [Bn-NH-CH2CO-Gly-Cys(SH)-Gly-Trp-NH2], the ring closure, conversion by HPLC in data set [1] (17-membered ring) is 41.

For the molecule `NC(=O)[C@H](Cc1c[nH]c2ccccc12)NC(=O)CNC(=O)[C@H](CSCc1cccc(CBr)n1)NC(=O)CNC(=O)CNCc1ccccc1` [Bn-NH-CH2CO-Gly-Cys(SH)-Gly-Trp-NH2], the ring closure, conversion by HPLC in data set [1] (15-membered ring) came to 86.

Take `N=C(N)NCCC[C@@H]1NC(=O)C[C@@H]2CCCN2C(=O)CN(Cc2ccco2)Cc2ccccc2CSC[C@@H](C(N)=O)NC1=O` [macrocycle 61]: the Ki (commonly a dissociation constant, usually derived from enzyme kinetics or from competition with a known ligand) on human thrombin was determined as 520 ± 110 nM.

In the case of `N=C(N)NCCC[C@@H]1NC(=O)C[C@H]2CCCN2C(=O)CN(Cc2ccco2)Cc2ccccc2CSC[C@@H](C(N)=O)NC1=O` [macrocycle 57], in the data set on human plasma [2], the “fold better PT EC2× than parent 7” value worked out at 1.9 fold. Further, at human thrombin, the affinity, expressed as Ki, was 10.6 ± 2 nM. Further, the “fold improvement of Ki over parental macrocycle 7” value at human thrombin (thrombin Ki relative to 7) is recorded as 5.5 fold. Further, in the data set with human plasma [3], the “fold better aPTT EC2× than parent 7” value amounted to 1.4 fold. For the same molecule, the target selectivity result in data set [4] is given as “high target selectivity”.

On to `NC(=O)[C@H](Cc1c[nH]c2ccccc12)NC(=O)CNC(=O)[C@H](CSCc1ccccc1CBr)NC(=O)CNC(=O)CNCc1ccccc1` [Bn-NH-CH2CO-Gly-Cys(SH)-Gly-Trp-NH2], for which the ring closure, conversion by HPLC in data set [1] (14-membered ring) turned out to be 32.

`N=C(N)NCCCC1NC(=O)CC2CCCN2C(=O)CN(Cc2ccccc2CO)Cc2ccccc2CSCC(C(N)=O)NC1=O` (centres unmarked) [macrocycle 7] gave a Ki at human thrombin of 59 ± 6 nM.

As to `NC(=O)[C@H](Cc1c[nH]c2ccccc12)NC(=O)CNC(=O)[C@H](CSCc1ccc(CBr)cc1)NC(=O)CNC(=O)CNCc1ccccc1` [Bn-NH-CH2CO-Gly-Cys(SH)-Gly-Trp-NH2], in data set [1] (16-membered ring), the ring closure, conversion by HPLC amounted to 18.

As to `C=CS(=O)(=O)CCSC[C@H](NC(=O)CNC(=O)CNCc1ccccc1)C(=O)NCC(=O)N[C@@H](Cc1c[nH]c2ccccc12)C(N)=O` [Bn-NH-CH2CO-Gly-Cys(SH)-Gly-Trp-NH2], the ring closure, conversion by HPLC in data set [1] (15-membered ring) amounted to 93.

Consider `NC(=O)[C@H](Cc1c[nH]c2ccccc12)NC(=O)CNC(=O)[C@H](CSc1ncnc(Cl)n1)NC(=O)CNC(=O)CNCc1ccccc1` [Bn-NH-CH2CO-Gly-Cys(SH)-Gly-Trp-NH2], for which the ring closure, conversion by HPLC in data set [1] (13-membered ring) was determined as 67.
